Data as given in ChEMBL document CHEMBL1201862, “PubChem BioAssay data set” (2004).
Calls of active or inactive are those of the source.

Assays:
[1] = growth suppression of PTEN-null colon cells, dose response, cell-based, HCT116 PTEN knockout (AID 1047); type: functional;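 further: HCT116 colon tumor cells with PTEN knocked out; cells exposed to compound for 60 hours before readout; potency for loss of cell viability measured by luminescence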
[2] = growth suppression of beta-catenin-knockout colon cells, dose response, cell-based, HCT116, human colon tumor (AID 1045); type: functional;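 further: HCT116 colon tumor cells with beta catenin knocked out; cells exposed to compound for 60 hours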
[3] = target: T1, Microphthalmia-associated transcription factor (Homo sapiens, UniProt O75030); test: TRPM1 promoter luciferase signal decrease, dose response, MITF inhibitor project, cell-based, SK-MEL-5, cherry-picked, set 3 (AID 493073); type: functional
T1 sequence (O75030 whole entry): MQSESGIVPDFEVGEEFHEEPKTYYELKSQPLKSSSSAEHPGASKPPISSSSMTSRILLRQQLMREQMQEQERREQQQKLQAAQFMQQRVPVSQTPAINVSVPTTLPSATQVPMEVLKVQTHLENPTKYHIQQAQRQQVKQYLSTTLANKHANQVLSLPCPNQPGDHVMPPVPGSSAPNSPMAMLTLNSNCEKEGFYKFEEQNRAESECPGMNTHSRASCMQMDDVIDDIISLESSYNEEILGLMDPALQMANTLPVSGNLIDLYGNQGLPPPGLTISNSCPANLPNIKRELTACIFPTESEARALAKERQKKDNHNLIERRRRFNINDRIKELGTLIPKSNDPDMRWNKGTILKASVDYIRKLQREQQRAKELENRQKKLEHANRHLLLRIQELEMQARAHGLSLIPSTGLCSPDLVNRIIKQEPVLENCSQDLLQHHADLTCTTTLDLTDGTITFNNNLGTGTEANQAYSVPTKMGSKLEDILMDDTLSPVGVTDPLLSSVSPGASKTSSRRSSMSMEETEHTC

A-375 = test: MITF: Counter assay: A375 proliferation Measured in Cell-Based System Using Plate Reader - 2084-03_Inhibitor_Dose_DryPowder_Activity. [Related pubchem assays (depositor defined):AID488944]; type: functional; details: Homo sapiens
[4] = target: T2, RNA-binding protein pos-1 (Caenorhabditis elegans, UniProt G5EF15); test: inhibitors of POS-1/mex-3 RNA binding, dose response, biochemical, fluorescence polarization (AID 1964);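 further: purified POS-1 fused to maltose binding protein made in E. coli; potency of compounds blocking POS-1 binding to fluorescent RNA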
T2 sequence (G5EF15 whole entry): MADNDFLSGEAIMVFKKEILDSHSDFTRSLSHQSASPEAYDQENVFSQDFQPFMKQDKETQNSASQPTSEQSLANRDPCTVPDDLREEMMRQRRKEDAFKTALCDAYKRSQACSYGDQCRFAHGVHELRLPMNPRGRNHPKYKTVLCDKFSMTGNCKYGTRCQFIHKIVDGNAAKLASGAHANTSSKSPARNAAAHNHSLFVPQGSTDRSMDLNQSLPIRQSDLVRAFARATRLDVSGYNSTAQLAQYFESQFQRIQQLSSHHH

[5] = target: T3, Zinc finger protein mex-5 (Caenorhabditis elegans, UniProt Q9XUB2); test: MEX-5/TCR-2 RNA interaction inhibitors, dose response, biochemical, C. elegans, fluorescence polarization (AID 1960)
T3 sequence (Q9XUB2 whole entry): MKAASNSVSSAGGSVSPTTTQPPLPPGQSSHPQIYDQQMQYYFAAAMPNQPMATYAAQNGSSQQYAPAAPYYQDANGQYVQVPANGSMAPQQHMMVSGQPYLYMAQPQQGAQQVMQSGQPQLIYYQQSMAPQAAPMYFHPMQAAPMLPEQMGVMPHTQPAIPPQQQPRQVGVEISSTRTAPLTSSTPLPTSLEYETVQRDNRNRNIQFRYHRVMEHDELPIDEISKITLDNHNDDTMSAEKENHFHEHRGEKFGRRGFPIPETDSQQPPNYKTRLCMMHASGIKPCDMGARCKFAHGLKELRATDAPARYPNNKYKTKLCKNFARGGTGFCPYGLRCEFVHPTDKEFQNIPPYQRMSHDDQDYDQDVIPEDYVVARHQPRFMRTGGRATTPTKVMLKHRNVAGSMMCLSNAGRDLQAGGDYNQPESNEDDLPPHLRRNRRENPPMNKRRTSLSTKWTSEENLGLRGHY

[6] = target: E3 ubiquitin-protein ligase XIAP (Homo sapiens, UniProt P98170); test: Counter Screen using XIAP-Bir3 for Chemical Antagonists of Bir1/2 domains of IAP-family anti-apoptotic proteins. [Related pubchem assays (depositor defined):AID1018, AID1449, AID1514, AID1638, AID1749, AID1750, AID488957, AID488963]
Sequence of E3 ubiquitin-protein ligase XIAP (P98170 whole entry): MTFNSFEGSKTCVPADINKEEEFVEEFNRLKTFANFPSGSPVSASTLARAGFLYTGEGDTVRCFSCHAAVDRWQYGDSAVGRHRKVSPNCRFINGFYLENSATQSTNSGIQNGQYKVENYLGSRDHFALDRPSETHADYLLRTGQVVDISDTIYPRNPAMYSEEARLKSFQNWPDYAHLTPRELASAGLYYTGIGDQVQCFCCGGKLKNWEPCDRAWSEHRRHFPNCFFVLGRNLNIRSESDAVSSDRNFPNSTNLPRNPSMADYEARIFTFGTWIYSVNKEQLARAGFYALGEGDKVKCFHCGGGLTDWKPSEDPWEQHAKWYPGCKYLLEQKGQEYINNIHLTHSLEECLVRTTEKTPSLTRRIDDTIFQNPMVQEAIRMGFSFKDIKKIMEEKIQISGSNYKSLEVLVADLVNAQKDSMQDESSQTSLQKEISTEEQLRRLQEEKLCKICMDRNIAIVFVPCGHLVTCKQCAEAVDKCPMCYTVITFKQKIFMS

ORF 73 = ORF 73 (Human herpesvirus 8, UniProt O40947); test: inhibitors of C-LANA binding to LBS DNA, dose response, biochemical, fluorescence polarization, cherry-picked samples (AID 504725); design: species or system Human gammaherpesvirus 8;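 further: fluorescence polarization of a labeled DNA duplex reporting LANA DNA binding; potency is for inhibitors that block LANA binding to the DNA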
Sequence of ORF 73 (O40947 whole entry): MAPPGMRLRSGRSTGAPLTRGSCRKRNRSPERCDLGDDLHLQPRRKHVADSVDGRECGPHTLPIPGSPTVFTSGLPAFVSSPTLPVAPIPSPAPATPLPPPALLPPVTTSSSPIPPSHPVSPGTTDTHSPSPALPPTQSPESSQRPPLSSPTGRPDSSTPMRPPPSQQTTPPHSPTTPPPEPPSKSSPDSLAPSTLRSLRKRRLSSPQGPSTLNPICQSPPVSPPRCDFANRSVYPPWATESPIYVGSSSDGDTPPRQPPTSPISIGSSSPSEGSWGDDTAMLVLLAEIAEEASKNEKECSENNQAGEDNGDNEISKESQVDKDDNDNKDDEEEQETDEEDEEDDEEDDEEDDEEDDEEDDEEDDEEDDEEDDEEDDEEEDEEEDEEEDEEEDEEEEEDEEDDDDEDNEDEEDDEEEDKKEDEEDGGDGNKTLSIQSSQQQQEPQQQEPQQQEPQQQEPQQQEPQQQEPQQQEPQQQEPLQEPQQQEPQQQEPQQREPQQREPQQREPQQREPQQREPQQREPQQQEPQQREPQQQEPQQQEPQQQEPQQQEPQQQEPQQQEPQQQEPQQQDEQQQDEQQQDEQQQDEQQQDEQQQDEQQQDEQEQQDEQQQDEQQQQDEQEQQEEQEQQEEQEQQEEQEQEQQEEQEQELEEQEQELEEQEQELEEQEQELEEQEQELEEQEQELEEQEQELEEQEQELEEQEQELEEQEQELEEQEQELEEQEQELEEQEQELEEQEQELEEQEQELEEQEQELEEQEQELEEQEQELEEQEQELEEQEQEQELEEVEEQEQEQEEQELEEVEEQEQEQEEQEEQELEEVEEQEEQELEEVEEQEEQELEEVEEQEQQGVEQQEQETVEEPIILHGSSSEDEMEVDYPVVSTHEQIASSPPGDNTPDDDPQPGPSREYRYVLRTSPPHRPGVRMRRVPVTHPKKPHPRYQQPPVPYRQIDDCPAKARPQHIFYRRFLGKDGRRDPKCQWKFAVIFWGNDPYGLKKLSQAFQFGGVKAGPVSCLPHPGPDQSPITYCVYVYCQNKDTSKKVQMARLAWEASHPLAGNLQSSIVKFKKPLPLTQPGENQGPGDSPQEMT

[7] = target: UDP-galactopyranose mutase (Mycobacterium tuberculosis, UniProt P9WIQ1); test: Inhibitors of Mycobacterium tuberculosis UDP-galactopyranose mutase (UGM) enzyme Measured in Biochemical System Using Plate Reader - 2105-02_Inhibitor_Dose_CherryPick_Activity. [Related pubchem assays (depositor defined):AID504439]
Sequence of UDP-galactopyranose mutase (P9WIQ1 whole entry): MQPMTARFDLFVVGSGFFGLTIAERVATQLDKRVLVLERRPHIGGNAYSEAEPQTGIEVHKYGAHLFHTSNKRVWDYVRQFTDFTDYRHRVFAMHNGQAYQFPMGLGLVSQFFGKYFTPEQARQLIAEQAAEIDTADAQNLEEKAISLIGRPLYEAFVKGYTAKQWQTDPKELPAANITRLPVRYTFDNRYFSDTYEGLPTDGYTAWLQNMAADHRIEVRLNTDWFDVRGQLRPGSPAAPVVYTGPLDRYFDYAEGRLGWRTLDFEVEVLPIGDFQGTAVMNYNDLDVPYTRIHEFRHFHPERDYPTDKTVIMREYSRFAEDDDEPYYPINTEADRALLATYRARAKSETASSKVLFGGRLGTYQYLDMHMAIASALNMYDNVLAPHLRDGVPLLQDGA

Keap1/Nrf2 = Keap1/Nrf2 (Homo sapiens, UniProt Q14145); test: Keap1-Nrf2 protein-protein interaction inhibitors, dose response, biochemical, fluorescence polarization, cherry-picked samples (AID 588683)
Sequence of Keap1/Nrf2 (Q16236 whole entry): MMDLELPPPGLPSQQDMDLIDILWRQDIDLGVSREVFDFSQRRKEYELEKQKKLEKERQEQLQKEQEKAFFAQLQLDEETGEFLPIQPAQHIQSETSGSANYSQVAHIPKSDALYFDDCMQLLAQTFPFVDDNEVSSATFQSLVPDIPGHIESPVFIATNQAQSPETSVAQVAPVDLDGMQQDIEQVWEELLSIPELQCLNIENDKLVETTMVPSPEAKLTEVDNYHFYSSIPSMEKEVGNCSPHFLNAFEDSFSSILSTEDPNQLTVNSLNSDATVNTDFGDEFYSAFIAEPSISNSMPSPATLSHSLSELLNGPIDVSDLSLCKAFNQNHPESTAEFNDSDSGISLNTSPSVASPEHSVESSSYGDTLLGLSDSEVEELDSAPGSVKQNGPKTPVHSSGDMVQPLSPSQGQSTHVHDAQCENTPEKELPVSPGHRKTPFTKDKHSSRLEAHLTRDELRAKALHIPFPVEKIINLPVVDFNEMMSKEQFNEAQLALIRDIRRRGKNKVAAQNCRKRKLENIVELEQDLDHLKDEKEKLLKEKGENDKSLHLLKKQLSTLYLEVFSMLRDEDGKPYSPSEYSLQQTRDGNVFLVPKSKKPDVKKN
Sequence of Keap1/Nrf2 (Q14145 whole entry): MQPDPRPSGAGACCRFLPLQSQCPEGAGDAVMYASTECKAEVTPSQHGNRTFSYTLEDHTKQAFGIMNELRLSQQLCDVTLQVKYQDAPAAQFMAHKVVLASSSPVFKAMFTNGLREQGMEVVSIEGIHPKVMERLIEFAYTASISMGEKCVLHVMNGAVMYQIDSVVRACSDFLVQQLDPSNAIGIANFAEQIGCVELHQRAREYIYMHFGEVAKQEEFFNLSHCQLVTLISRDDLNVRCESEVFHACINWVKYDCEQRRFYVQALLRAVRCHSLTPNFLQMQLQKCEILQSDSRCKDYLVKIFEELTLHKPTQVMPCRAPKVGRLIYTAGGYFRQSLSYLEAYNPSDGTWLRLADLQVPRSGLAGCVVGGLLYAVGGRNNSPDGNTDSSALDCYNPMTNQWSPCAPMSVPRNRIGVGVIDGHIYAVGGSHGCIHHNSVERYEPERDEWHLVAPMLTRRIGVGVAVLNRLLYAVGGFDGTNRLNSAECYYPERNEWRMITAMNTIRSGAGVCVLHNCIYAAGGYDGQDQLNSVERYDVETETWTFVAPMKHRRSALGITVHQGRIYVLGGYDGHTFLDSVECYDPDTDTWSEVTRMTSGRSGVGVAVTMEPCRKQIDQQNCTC

Protein S100-A4 = Protein S100-A4 (Homo sapiens, UniProt P26447); test: S100A4-myosin IIA binding inhibitor potency, dose response, biochemical, fluorescence polarization, cherry-picked hits (AID 687001); type: functional
Sequence of Protein S100-A4 (P26447 whole entry, the tested form may be a part): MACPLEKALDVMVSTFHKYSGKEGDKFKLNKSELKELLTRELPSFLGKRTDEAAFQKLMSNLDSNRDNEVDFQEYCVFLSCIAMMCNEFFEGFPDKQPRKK

Fibrinogen beta chain [8] = target: T4, Fibrinogen beta chain (Homo sapiens, UniProt P02675); test: Fluorescence polarization-based biochemical high throughput dose response assay to identify inhibitors that disrupt the binding of a cyclic peptide (Tn6) to the fibrin proteolytic product D-Dimer and fragment E complex [DD(E )].
T4 sequence (P02675 whole entry): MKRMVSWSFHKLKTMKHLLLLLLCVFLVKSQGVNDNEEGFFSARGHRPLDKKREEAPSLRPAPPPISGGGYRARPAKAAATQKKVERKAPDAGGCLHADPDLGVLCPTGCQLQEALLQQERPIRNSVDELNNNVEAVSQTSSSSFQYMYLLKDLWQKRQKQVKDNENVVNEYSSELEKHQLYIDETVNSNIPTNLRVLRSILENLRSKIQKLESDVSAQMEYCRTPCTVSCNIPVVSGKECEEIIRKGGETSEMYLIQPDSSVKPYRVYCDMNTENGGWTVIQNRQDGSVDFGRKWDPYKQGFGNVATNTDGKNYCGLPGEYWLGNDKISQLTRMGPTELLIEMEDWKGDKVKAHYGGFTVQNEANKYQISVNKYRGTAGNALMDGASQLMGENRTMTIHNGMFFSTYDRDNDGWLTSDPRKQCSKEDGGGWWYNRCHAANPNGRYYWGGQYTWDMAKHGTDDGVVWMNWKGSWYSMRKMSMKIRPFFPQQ

Fibrinogen beta chain [9] = target: T4, Fibrinogen beta chain; test: Fluorescence polarization-based biochemical high throughput dose response assay to identify inhibitors that disrupt the binding of a cyclic peptide (Tn7) to the fibrin proteolytic product D-Dimer and fragment E complex [DD(E )].
BJ [10] = test: cytotoxicity toward BJ-TERT fibroblasts, dose response, cell-based, RAS-independent, luminescence (AID 1933); type: functional; details: Homo sapiens
BJ [11] = test: cells; type: functional, cell-based; details: Homo sapiens
BJ [12] = test: cytotoxicity toward BJ-TERT-LT-ST fibroblasts, dose response, cell-based, RAS-independent, luminescence (AID 1935); type: functional; details: Homo sapiens;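 further: BJ fibroblasts immortalized with TERT plus LT and ST oncogenes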
[13] = cytotoxicity toward DRD oncogenic fibroblasts, dose response, cell-based, non-viral oncogenic, luminescence (AID 1934); type: functional; details: Homo sapiens
Jurkat = test: antigen receptor-induced NF-kB inhibitors, dose response, Jurkat, luciferase reporter, luminescence, B- and T-cell (AID 489004); type: functional, cell-based; details: Homo sapiens;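 further: NF-kB luciferase reporter Jurkat cells stimulated with PMA plus ionomycin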
[14] = cytotoxicity in HEK-293T NF-kB-Luc cells, dose response, cytotoxicity control for B/T-cell NF-kB inhibitor project, cell-based, uHTS hits (AID 489019); type: functional;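 further: IC50 reflects cytotoxicity as loss of cell viability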
INS1 = test: beta cell apoptosis inhibitors, cytokine rescue, dose response, luminescence, retest (AID 449756); type: functional, cell-based; details: Rattus norvegicus;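 further: cell death triggered by IL-1 beta plus TNF-alpha plus IFN-gamma mixture; protective hits raise ATP signal compared with cytokine alone wells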
[15] = inhibitors of HIV Env-driven cell fusion, dose response, cherry-pick (AID 652057); type: functional, cell-based
Galanin receptor type 3 = Galanin receptor type 3 (Homo sapiens, UniProt O60755); test: Fluorescence-based cell-based primary high throughput dose response assay to identify antagonists of the Galanin Receptor 3 (GalR3).; type: functional
Sequence of Galanin receptor type 3 (O60755 whole entry): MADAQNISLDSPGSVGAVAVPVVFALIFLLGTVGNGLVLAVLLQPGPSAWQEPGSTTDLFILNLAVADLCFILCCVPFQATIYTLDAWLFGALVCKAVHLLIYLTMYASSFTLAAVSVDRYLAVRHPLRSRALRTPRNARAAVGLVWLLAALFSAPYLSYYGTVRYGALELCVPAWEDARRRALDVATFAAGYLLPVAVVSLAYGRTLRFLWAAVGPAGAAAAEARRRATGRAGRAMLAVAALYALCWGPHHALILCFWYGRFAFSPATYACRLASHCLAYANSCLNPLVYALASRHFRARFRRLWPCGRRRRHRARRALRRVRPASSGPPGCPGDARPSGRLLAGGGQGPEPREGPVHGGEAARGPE

cells = type: functional, cell-based; details: HEK-CNG
[16] = CEM21 lymphoblast cell cytotoxicity, dose response, cytotoxicity control for viral fusion inhibitor project, CellTiter-Glo luminescence, cherry-picked (AID 652042); type: functional, cell-based;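 further: potency for signal decrease meaning cytotoxicity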
[17] = ZM109 Env clade C HIV-1 fusion inhibitors, dose response, HeLa effector, CEM target cells, luciferase, cherry-pick (AID 652058); type: functional, cell-based
[18] = off-target signal loss in HeLa-CEM21 co-culture – HeLa F-luc CTL cells, cherry-picked, counter-screen for HIV-1 Env fusion inhibitor project, dose response (AID 652040); type: functional, cell-based;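 further: potency for signal decrease marking cytotoxic or nonspecific inhibition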
[19] = inhibitors of clade B AD8 Env fusion, dose response, cell-based, cherry-pick (AID 652062); type: functional;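 further: luciferase signal from cell-cell fusion driven by HIV-1 clade B AD8 Env; potency is for inhibitors of fusion seen as a drop in luminescence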
[20] = target: T5, Short transient receptor potential channel 4 (Mus musculus, UniProt Q9QUQ5); test: mouse TRPC4 channel activators, dose response, cell-based, HEK293 TRPC4/mu-opioid, Fluo-4 calcium (AID 434937); type: functional
T5 sequence (Q9QUQ5 whole entry): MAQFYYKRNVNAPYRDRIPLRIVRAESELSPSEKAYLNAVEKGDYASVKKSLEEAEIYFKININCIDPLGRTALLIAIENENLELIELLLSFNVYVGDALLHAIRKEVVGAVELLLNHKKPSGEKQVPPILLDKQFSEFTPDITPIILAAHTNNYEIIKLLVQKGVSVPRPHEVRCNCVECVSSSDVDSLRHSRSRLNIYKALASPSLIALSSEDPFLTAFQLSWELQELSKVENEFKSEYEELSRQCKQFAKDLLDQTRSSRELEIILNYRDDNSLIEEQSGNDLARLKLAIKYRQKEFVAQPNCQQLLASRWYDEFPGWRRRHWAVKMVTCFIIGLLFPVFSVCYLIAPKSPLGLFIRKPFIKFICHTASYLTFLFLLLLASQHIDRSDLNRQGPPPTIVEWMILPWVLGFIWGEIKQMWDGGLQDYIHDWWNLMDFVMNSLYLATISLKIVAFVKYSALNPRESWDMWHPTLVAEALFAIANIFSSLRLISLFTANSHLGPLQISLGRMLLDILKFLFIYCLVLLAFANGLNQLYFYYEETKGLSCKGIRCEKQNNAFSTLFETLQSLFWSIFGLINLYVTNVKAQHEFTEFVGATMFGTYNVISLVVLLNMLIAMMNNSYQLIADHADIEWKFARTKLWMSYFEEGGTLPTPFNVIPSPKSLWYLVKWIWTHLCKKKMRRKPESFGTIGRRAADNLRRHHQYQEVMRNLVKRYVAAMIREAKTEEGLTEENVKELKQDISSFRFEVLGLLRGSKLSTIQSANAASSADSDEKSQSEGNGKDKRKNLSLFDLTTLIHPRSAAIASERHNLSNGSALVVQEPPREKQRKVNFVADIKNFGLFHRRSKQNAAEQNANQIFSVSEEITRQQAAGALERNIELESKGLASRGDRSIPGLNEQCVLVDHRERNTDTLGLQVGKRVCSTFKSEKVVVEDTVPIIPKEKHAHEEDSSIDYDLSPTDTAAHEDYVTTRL

[21] = target: Delta-type opioid receptor (Homo sapiens, UniProt P41143); test: Counterscreen for agonists of heterodimerization of the mu 1 (OPRM1) and delta 1 (OPRD1) opioid receptors: Luminescence-based cell-based high throughput dose response assay to identify agonists of OPRD1 homodimerization. [Related pubchem assays (depositor defined):AID504326, AID504355, AID504692, AID504904, AID504905]; type: functional
Sequence of Delta-type opioid receptor (P41143 whole entry): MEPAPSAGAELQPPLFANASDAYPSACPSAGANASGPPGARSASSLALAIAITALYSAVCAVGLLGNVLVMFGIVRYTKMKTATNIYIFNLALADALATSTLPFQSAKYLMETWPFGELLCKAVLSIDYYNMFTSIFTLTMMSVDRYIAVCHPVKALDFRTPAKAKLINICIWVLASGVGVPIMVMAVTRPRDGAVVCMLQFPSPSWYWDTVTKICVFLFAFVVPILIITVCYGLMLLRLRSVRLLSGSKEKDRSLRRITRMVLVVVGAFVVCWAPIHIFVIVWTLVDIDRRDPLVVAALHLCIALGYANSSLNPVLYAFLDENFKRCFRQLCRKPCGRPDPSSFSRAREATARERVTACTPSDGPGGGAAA

Mu-type opioid receptor = Mu-type opioid receptor (Homo sapiens, UniProt P35372); test: Counterscreen for agonists of heterodimerization of the mu 1 (OPRM1) and delta 1 (OPRD1) opioid receptors: Luminescence-based cell-based high throughput dose response assay to identify agonists of OPRM1 homodimerization.; type: functional;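 further: U2OS cells expressing OPRM1 and beta-arrestin as split beta-galactosidase partners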
Sequence of Mu-type opioid receptor (P35372 whole entry): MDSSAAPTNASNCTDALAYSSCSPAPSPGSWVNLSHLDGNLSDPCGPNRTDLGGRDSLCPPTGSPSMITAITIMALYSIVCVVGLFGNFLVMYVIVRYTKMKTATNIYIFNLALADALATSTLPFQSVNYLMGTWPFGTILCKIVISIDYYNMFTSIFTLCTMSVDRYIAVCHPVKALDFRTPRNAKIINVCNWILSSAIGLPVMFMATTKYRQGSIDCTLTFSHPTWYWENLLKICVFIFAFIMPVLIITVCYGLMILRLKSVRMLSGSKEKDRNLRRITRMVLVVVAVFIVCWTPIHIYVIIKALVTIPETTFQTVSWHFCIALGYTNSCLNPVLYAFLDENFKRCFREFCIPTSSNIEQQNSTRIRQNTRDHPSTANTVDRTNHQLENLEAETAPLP

[22] = target: 5-hydroxytryptamine receptor 5A (Homo sapiens, UniProt P47898); test: Counterscreen for agonists of OPRM1-OPRD1 heterodimerization: luminescence-based cell-based high throughput dose response assay to identify agonists of 5-hydroxytryptamine (serotonin) 5A receptor (HTR5A). [Related pubchem assays (depositor defined):AID504326, AID504355, AID504692, AID504904, AID504905]; type: functional
Sequence of 5-hydroxytryptamine receptor 5A (P47898 whole entry): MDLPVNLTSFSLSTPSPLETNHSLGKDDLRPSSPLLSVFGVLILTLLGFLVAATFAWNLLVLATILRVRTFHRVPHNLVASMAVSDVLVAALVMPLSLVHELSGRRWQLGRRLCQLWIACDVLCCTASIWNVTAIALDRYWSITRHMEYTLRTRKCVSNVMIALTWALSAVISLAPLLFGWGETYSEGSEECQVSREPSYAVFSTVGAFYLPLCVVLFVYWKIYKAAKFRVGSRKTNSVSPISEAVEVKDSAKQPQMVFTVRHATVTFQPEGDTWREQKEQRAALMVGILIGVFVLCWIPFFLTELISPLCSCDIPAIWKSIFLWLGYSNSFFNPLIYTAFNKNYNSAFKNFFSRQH

Cc1ccc(Cn2c(=N)n(CC(=O)c3ccc([N+](=O)[O-])cc3)c3ccccc32)cc1
EC50 [1]: 5.32 µM (active)
EC50 [2]: 4.07 µM (active)
AC50 [3]: 6.42 µM (active)
AC50 (A-375): 33.5 µM (active)

CN1C(=O)NC(c2ccccc2[N+](=O)[O-])C2=C1CCCC2=O (stereo unspecified)
EC50 [4]: 8.8 µM (active)
EC50 [5]: 7.58 µM (inconclusive)
IC50 [6]: > 20 µM (inactive)
AC50 (ORF 73): 24.9 µM (active)
AC50 [7]: 54.3 µM (active)
AC50 (Keap1/Nrf2): 44.5 µM (active)
AC50 (Protein S100-A4): 1.41 µM (active)
IC50 (Fibrinogen beta chain [8]): 11.3 µM (inactive)
IC50 (Fibrinogen beta chain [9]): > 83.3 µM (inactive)

CCCCCCCCCn1ccc(=N)cc1
EC50 (BJ [10]): 9.76 µM (inconclusive)
EC50 (BJ [11]): 11.9 µM (active)
EC50 (BJ [12]): > 150 µM (inconclusive)
EC50 [13]: 9.21 µM (active)
IC50 (Jurkat): 6.34 µM (active)
IC50 [14]: > 80 µM (inactive)
AC50 (INS1): 0.48 µM (active)
AC50 [15]: 8.77 µM (active)
IC50 (Galanin receptor type 3): 1.95 µM (active)
EC50 (cells): > 29.9 µM (inactive)
AC50 [16]: 24.1 µM (active)
AC50 [17]: 2 µM (active)
AC50 [18]: 2.39 µM (active)
AC50 [19]: 0.848 µM (active)

COc1ccc(C(CNC(=O)CCOc2ccccc2)N(C)C)cc1 (stereo unspecified)
EC50 [20]: 1.06 µM (active)
EC50 [21]: > 92.5 µM (inactive)
EC50 (Mu-type opioid receptor): > 92.5 µM (inactive)
EC50 [22]: > 92.5 µM (inactive)
